Data taken from patent US12077503B2, “Substituted cyclic amides and their use as herbicides” (FMC CORPORATION, priority 2015, dated 2024).

Tests used:
Format in all cases: in vivo
[1] = test system: Kochia (Kochia scoparia); experiment: Test A preemergence; details: Bassia scoparia, pre-emergence, 240 h, Preemergence; for pest or weed control at 31 g/ha: 31 g ai/ha, 0 to 100 scale where 0 is no effect and 100 is complete control, read-out: Kochia plant response rating; for pest or weed control at 125 g/ha: 125 g ai/ha, visual injury rating after approximately 10 d, read-out: Kochia plant response rating (0 to 100 scale, 0 is no effect, 100 is complete control)
In short: (§1)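 Seeds sprayed preemergence with a directed soil spray, or plants at 2 to 10 cm height and one- to two-leaf stage sprayed postemergence, with test chemicals in a non-phytotoxic solvent mixture containing surfactant, in loam soil–sand blend. Injury rated visually against untreated controls after about 10 d in greenhouse, 0 (no effect) to 100 (complete control).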

[2] = test system: barnyardgrass (Echinochloa crus-galli); experiment: Test A preemergence; details: Echinochloa crus-galli, pre-emergence, 240 h, Preemergence; for pest or weed control at 125 g/ha: 125 g ai/ha, visual injury rating after approximately 10 d, read-out: Barnyardgrass plant response rating (0 to 100 scale, 0 is no effect, 100 is complete control); for pest or weed control at 31 g/ha: 31 g ai/ha, 0 to 100 scale (0 no effect, 100 complete control), read-out: Plant response rating, Barnyardgrass
In short: as §1

[3] = test system: giant foxtail (Setaria faberii); experiment: Test A preemergence; details: Setaria faberi, pre-emergence, 240 h, Preemergence; for pest or weed control at 125 g/ha: 125 g ai/ha, visual injury rating after approximately 10 d, read-out: Foxtail, Giant plant response rating (0 to 100 scale, 0 is no effect, 100 is complete control); for pest or weed control at 31 g/ha: 31 g ai/ha, 0 to 100 scale (0 no effect, 100 complete control), read-out: Plant response rating, Foxtail, Giant
In short: as §1

[4] = test system: pigweed (Amaranthus retroflexus); experiment: Test A preemergence; details: Amaranthus retroflexus, pre-emergence, 240 h, Preemergence; for pest or weed control at 31 g/ha: 31 g ai/ha, 0 to 100 scale where 0 is no effect and 100 is complete control, read-out: Pigweed plant response rating; for pest or weed control at 125 g/ha: 125 g ai/ha, visual injury rating after approximately 10 d, read-out: Pigweed plant response rating (0 to 100 scale, 0 is no effect, 100 is complete control)
[5] = test system: ragweed (common ragweed, Ambrosia elatior); experiment: Test A preemergence; details: Ambrosia artemisiifolia, pre-emergence, 240 h, Preemergence; for pest or weed control at 31 g/ha: 31 g ai/ha, 0 to 100 scale where 0 is no effect and 100 is complete control, read-out: Ragweed plant response rating; for pest or weed control at 125 g/ha: 125 g ai/ha, visual injury rating after approximately 10 d, read-out: Ragweed plant response rating (0 to 100 scale, 0 is no effect, 100 is complete control)
In short: as §1

[6] = test system: ryegrass, Italian (Italian ryegrass, Lolium multiflorum); experiment: Test A preemergence; details: Lolium multiflorum, pre-emergence, 240 h, Preemergence; for pest or weed control at 31 g/ha: 31 g ai/ha, 0 to 100 scale where 0 is no effect and 100 is complete control, read-out: Ryegrass, Italian plant response rating; for pest or weed control at 125 g/ha: 125 g ai/ha, visual injury rating after approximately 10 d, read-out: Ryegrass, Italian plant response rating (0 to 100 scale, 0 is no effect, 100 is complete control)
In short: as §1

[7] = test system: Galium (catchweed bedstraw, Galium aparine); experiment: Test A postemergence; details: Galium, post-emergence, 240 h; for pest or weed control at 125 g/ha: 125 g ai/ha, postemergence, visual injury on 0 to 100 scale (0 no effect, 100 complete control), approx. 10 d, read-out: Galium plant response rating; for pest or weed control at 31 g/ha: Postemergence, 31 g ai/ha, visual injury after approx. 10 d, 0 to 100 scale, 0 no effect, 100 complete control, read-out: Plant response rating, Galium
In short: as §1

[8] = test system: Kochia (Kochia scoparia); experiment: Test A postemergence; details: Bassia scoparia, post-emergence, 240 h; for pest or weed control at 125 g/ha: 125 g ai/ha, postemergence, visual injury on 0 to 100 scale (0 no effect, 100 complete control), approx. 10 d, read-out: Kochia plant response rating; for pest or weed control at 31 g/ha: Postemergence, 31 g ai/ha, visual injury after approx. 10 d, 0 to 100 scale, 0 no effect, 100 complete control, read-out: Plant response rating, Kochia
In short: as §1

[9] = test system: barnyardgrass (Echinochloa crus-galli); experiment: Test A postemergence; details: Echinochloa crus-galli, post-emergence, 240 h; for pest or weed control at 125 g/ha: 125 g ai/ha, postemergence, visual injury on 0 to 100 scale (0 no effect, 100 complete control), approx. 10 d, read-out: Barnyardgrass plant response rating; for pest or weed control at 31 g/ha: Postemergence, 31 g ai/ha, visual injury after approx. 10 d, 0 to 100 scale, 0 no effect, 100 complete control, read-out: Plant response rating, Barnyardgrass
In short: as §1

[10] = test system: blackgrass (Alopecurus myosuroides); experiment: Test A postemergence; details: Alopecurus myosuroides, post-emergence, 240 h; for pest or weed control at 125 g/ha: 125 g ai/ha, postemergence, visual injury on 0 to 100 scale (0 no effect, 100 complete control), approx. 10 d, read-out: Blackgrass plant response rating; for pest or weed control at 31 g/ha: Postemergence, 31 g ai/ha, visual injury after approx. 10 d, 0 to 100 scale, 0 no effect, 100 complete control, read-out: Plant response rating, Blackgrass
In short: as §1

[11] = test system: corn (Zea mays); experiment: Test A postemergence; details: Zea mays, post-emergence, 240 h; for plant injury at 125 g/ha: 125 g ai/ha, postemergence, visual injury on 0 to 100 scale (0 no effect, 100 complete control), approx. 10 d, read-out: Corn plant response rating; for Corn plant response rating (crop injury, 0 = no effect, 100 = complete kill) at 31 g/ha: Postemergence, 31 g ai/ha, visual injury after approx. 10 d, 0 to 100 scale, 100 complete control
In short: as §1

[12] = test system: giant foxtail (Setaria faberii); experiment: Test A postemergence; details: Setaria faberi, post-emergence, 240 h; for pest or weed control at 125 g/ha: 125 g ai/ha, postemergence, visual injury on 0 to 100 scale (0 no effect, 100 complete control), approx. 10 d, read-out: Foxtail, Giant plant response rating; for pest or weed control at 31 g/ha: Postemergence, 31 g ai/ha, visual injury after approx. 10 d, 0 to 100 scale, 0 no effect, 100 complete control, read-out: Plant response rating, Foxtail, Giant
In short: as §1

[13] = test system: pigweed (Amaranthus retroflexus); experiment: Test A postemergence; details: Amaranthus retroflexus, post-emergence, 240 h; for pest or weed control at 125 g/ha: 125 g ai/ha, postemergence, visual injury on 0 to 100 scale (0 no effect, 100 complete control), approx. 10 d, read-out: Pigweed plant response rating; for pest or weed control at 31 g/ha: Postemergence, 31 g ai/ha, visual injury after approx. 10 d, 0 to 100 scale, 0 no effect, 100 complete control, read-out: Plant response rating, Pigweed
In short: as §1

[14] = test system: ragweed (common ragweed, Ambrosia elatior); experiment: Test A postemergence; details: Ambrosia artemisiifolia, post-emergence, 240 h; for pest or weed control at 125 g/ha: 125 g ai/ha, postemergence, visual injury on 0 to 100 scale (0 no effect, 100 complete control), approx. 10 d, read-out: Ragweed plant response rating; for pest or weed control at 31 g/ha: Postemergence, 31 g ai/ha, visual injury after approx. 10 d, 0 to 100 scale, 0 no effect, 100 complete control, read-out: Plant response rating, Ragweed
In short: as §1

[15] = test system: ryegrass, Italian (Italian ryegrass, Lolium multiflorum); experiment: Test A postemergence; details: Lolium multiflorum, post-emergence, 240 h; for pest or weed control at 125 g/ha: 125 g ai/ha, postemergence, visual injury on 0 to 100 scale (0 no effect, 100 complete control), approx. 10 d, read-out: Ryegrass, Italian plant response rating; for pest or weed control at 31 g/ha: Postemergence, 31 g ai/ha, visual injury after approx. 10 d, 0 to 100 scale, 0 no effect, 100 complete control, read-out: Plant response rating, Ryegrass, Italian
In short: as §1

[16] = test system: wheat (Triticum aestivum); experiment: Test A postemergence; details: Triticum aestivum, post-emergence, 240 h; for plant injury at 125 g/ha: 125 g ai/ha, postemergence, visual injury on 0 to 100 scale (0 no effect, 100 complete control), approx. 10 d, read-out: Wheat plant response rating; for plant injury at 31 g/ha: Postemergence, 31 g ai/ha, visual injury after approx. 10 d, 0 to 100 scale, 0 no effect, 100 complete control, read-out: Plant response rating, Wheat
In short: as §1

[17] = test system: barnyardgrass (Echinochloa crus-galli); experiment: Test B flooded paddy test; details: Echinochloa crus-galli, 250 g ai/ha, Flood; 0 to 100 scale where 0 is no effect and 100 is complete control; read-out: Barnyardgrass plant response rating
In short: (§2)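 Evaluation by eye, against controls, occurred 13–15 d post-treatment in a greenhouse, using a 0 (no effect) to 100 (complete control) scale. Application was into the paddy water, 3 cm deep over the soil, on 2-leaf plants.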

[18] = test system: ducksalad (Heteranthera limosa); experiment: Test B flooded paddy test; details: Heteranthera limosa, 250 g ai/ha, Flood; 0 to 100 scale where 0 is no effect and 100 is complete control; read-out: Ducksalad plant response rating
In short: as §2

[19] = test system: rice (Oryra sativa); experiment: Test B flooded paddy test; details: Oryza sativa, 250 g ai/ha, Flood; 0 to 100 scale where 0 is no effect and 100 is complete control; read-out: Rice plant response rating
In short: as §2

[20] = test system: sedge, umbrella (small-flower umbrella sedge, Cyperus difformis); experiment: Test B flooded paddy test; details: Cyperus difformis, 250 g ai/ha, Flood; 0 to 100 scale where 0 is no effect and 100 is complete control; read-out: Sedge, Umbrella plant response rating
In short: as §2

Structure (SMILES)	pest or weed control at 31 g/ha [1] [%]	pest or weed control at 125 g/ha [1] [%]	pest or weed control at 125 g/ha [2] [%]	pest or weed control at 31 g/ha [2] [%]	pest or weed control at 125 g/ha [3] [%]	pest or weed control at 31 g/ha [3] [%]	pest or weed control at 31 g/ha [4] [%]	pest or weed control at 125 g/ha [4] [%]	pest or weed control at 31 g/ha [5] [%]	pest or weed control at 125 g/ha [5] [%]	pest or weed control at 31 g/ha [6] [%]	pest or weed control at 125 g/ha [6] [%]	pest or weed control at 125 g/ha [7] [%]	pest or weed control at 31 g/ha [7] [%]	pest or weed control at 125 g/ha [8] [%]	pest or weed control at 31 g/ha [8] [%]	pest or weed control at 125 g/ha [9] [%]	pest or weed control at 31 g/ha [9] [%]	pest or weed control at 125 g/ha [10] [%]	pest or weed control at 31 g/ha [10] [%]	other results
CSc1ccccc1NC(=O)[C@H]1C(=O)NC[C@@H]1c1ccc(C(F)(F)F)cn1 [Compound 1050]	0	0	0	0	0	0	0	0	0	0	0	0	0	0	0	0	0	0	0	0	plant injury at 125 g/ha [11]: 0%; Corn plant response rating (crop injury, 0 = no effect, 100 = complete kill) at 31 g/ha [11]: 0%; pest or weed control at 125 g/ha [12]: 0%; pest or weed control at 31 g/ha [12]: 0%; pest or weed control at 125 g/ha [13]: 0%; pest or weed control at 31 g/ha [13]: 0%; pest or weed control at 125 g/ha [14]: 0%; pest or weed control at 31 g/ha [14]: 0%; pest or weed control at 125 g/ha [15]: 0%; pest or weed control at 31 g/ha [15]: 0%; plant injury at 125 g/ha [16]: 0%; plant injury at 31 g/ha [16]: 0%; pest or weed control at 250 g/ha [17]: 0%; pest or weed control at 250 g/ha [18]: 85%; pest or weed control at 250 g/ha [19]: 0%; pest or weed control at 250 g/ha [20]: 0%
CN1C[C@H](c2ccc(C(F)(F)F)cn2)[C@@H](C(=O)Nc2cccc(F)c2F)C1=O [Compound 1052]	20	70	90	30	90	80	40	80	0	20	0	30	70	40	40	0	80	30	20	0	plant injury at 125 g/ha [11]: 0%; Corn plant response rating (crop injury, 0 = no effect, 100 = complete kill) at 31 g/ha [11]: 0%; pest or weed control at 125 g/ha [12]: 70%; pest or weed control at 31 g/ha [12]: 30%; pest or weed control at 125 g/ha [13]: 30%; pest or weed control at 31 g/ha [13]: 0%; pest or weed control at 125 g/ha [14]: 30%; pest or weed control at 31 g/ha [14]: 0%; pest or weed control at 125 g/ha [15]: 20%; pest or weed control at 31 g/ha [15]: 0%; plant injury at 125 g/ha [16]: 0%; plant injury at 31 g/ha [16]: 0%; pest or weed control at 250 g/ha [17]: 85%; pest or weed control at 250 g/ha [18]: 100%; pest or weed control at 250 g/ha [19]: 0%; pest or weed control at 250 g/ha [20]: 0%
